# Tested on: Guinea pig's skin
# Test: Skin penetration with Frantz cell, HPLC determination
# Format: in vitro ADME
# Protocol: Skin penetration was evaluated for Guinea pig's skin with Frantz cell. Before test, abdominal part, a piece of skin as large as 1 cm^2 square was excised. The excised skin was mounted on a Frantz cell with the diameter of 0.9 cm and fixed with clamp. 0.5 ml of test sample (in case of Examples 1˜9 and C. Examples 1˜6, 0.05 ml of sample and distilled water; and in case of Formulations 1˜30 and C. Formulations 1˜15, 0.5 ml of sample only) was placed on one side of skin (donor side). The other side (receiver side) was filled with mixture of distilled water and ethanol (4:1 weight ratio). Test was performed at 32° C., which is skin temperature. Test solvent was sampled at predetermined time intervals from the receiver side, and the amounts of penetrated compound K, ginsenoside F1 and compound Y were determined by HPLC system. The data were indicated in penetrated amount per applied concentration (μg/cm^2/wt %).
# In case of purified ginseng saponin, the amount of penetrated saponin was determined. Also, in case of Bio GF1K, the amounts of penetrated compound K, ginsenoside F1 and compound Y were determined and total penetrated amounts were calculated by sum of each peak.
# <HPLC Analytic Condition> • Column: C18 (ODS) • Solvent Flow: 1 ml/min • Detection UV: 203 nm • Sample test concentration 5 mg/ml • Sample injection amount: 10 μg • Eluent: Gradient condition • A: Acetonitrile/D.I. water=15/85 • B: Acetonitrile/D.I. water=80/20
# <Solvent Gradient Condition>
row,Compound,skin penetration (comparison in words)
1,"CC(C)=CCC[C@](C)(O[C@@H]1O[C@H](CO)[C@@H](O)[C@H](O)[C@H]1O)[C@H]1CC[C@]2(C)[C@@H]1[C@H](O)C[C@@H]1[C@@]3(C)CC[C@H](O)C(C)(C)[C@@H]3CC[C@]12C [compound K, 20-O-β-D-glucopyranosyl-20(S)-protopanaxadiol]",superior effects on skin penetration to purified ginseng saponin
2,"CC(C)=CCC[C@](C)(O[C@@H]1O[C@H](CO[C@@H]2OC[C@H](O)[C@H](O)[C@H]2O)[C@@H](O)[C@H](O)[C@H]1O)[C@H]1CC[C@]2(C)[C@@H]1[C@H](O)C[C@@H]1[C@@]3(C)CC[C@H](O)C(C)(C)[C@@H]3CC[C@]12C [compound Y, 20-O-[α-L-arabinopyranosyl(1→6)-β-D-glucopyranosyl]-20(S)-protopanaxadiol]",superior effects on skin penetration to purified ginseng saponin
3,"CC(C)=CCC[C@](C)(O[C@@H]1O[C@H](CO)[C@@H](O)[C@H](O)[C@H]1O)[C@H]1CC[C@]2(C)[C@@H]1[C@H](O)C[C@@H]1[C@@]3(C)CC[C@H](O)C(C)(C)[C@@H]3[C@@H](O)C[C@]12C [ginsenoside F1, 20-O-β-D-glucopyranosyl-20(S)-protopanaxatriol]",superior effects on skin penetration to purified ginseng saponin

# Source: patent publication US8263565B2, “Nanoemulsion comprising metabolites of ginseng saponin as an active component and a method for preparing the same, and a skin-care composition for anti-aging containing the same” (Amorepacific Corporation, priority 2002, dated 2012)
